# Measurements published in PMC11305403, “Design, synthesis, and antiproliferative screening of new quinoline derivatives bearing a cis-vinyl triamide motif as apoptosis activators and EGFR-TK inhibitors” (RSC Advances, 2024).
# Experiments:
# MCF-7 cell line = assay: MTT cytotoxic / antiproliferative activity against MCF-7 cell line; assay type: cell-based; details: for IC50: MTT assay, MCF-7 breast adenocarcinoma cells, 24 h treatment; for fold more potent antiproliferative activity than the reference STU: MCF-7, relative to STU IC50
# Procedure: S4.2.1. Cytotoxic activity evaluation […]
# adenocarcinoma (MCF-7) cell line. Cell viability assay was assessed using MTT assay […]
# under 5% CO2. After incubation, the cells were treated with different concentrations of the test hybrid 5 and 6a-h and incubated for 24 h, then 20 µl of MTT solution at 5 […]
# Dimethyl sulphoxide (DMSO) in […]
# volume of 100 µl was added to each well to dissolve the purple formazan that had formed. The color intensity of the formazan product, which represents the growth […]
# 570 nm absorbance. The experimental conditions were carried out with at least three replicates, and the experiments were repeated at least three times. […]
# MCF-7 cells [1] = assay: Cell cycle analysis by flow cytometry (PI staining) in MCF-7 cells; assay type: cell-based; details: MCF-7, 1.87 μM, 48 h
# Source text: The cell cycle is related to a series of events responsible for cell division and duplication.[42] The cell cycle presents three distinct phases: G1, S and G2/M phase.[43] Due to the importance of the cell cycle in the process of tumor progression, we evaluated if the cell growth inhibition in MCF-7 occurred due to cell cycle arrest using FACS method. In the present study, flow cytometric measurement was utilized to investigate the effect of quinoline tethered [2-(4-methoxyphenyl)-cis-vinyl] triamide 6f on cellular cycle progression in tested breast cancer cells. In the test, MCF-7 cells were treated with quinoline tethered [2-(4-methoxyphenyl)-cis-vinyl] triamide 6f at a concentration of 1.87 μM, then incubated for 48 h. The cellular cycle distribution was analyzed to identify the definite phase at which quinoline tethered [2-(4-methoxyphenyl)-cis-vinyl] triamide 6f can arrest the cell cycle. […] It is observed that the percentage of cells at G1 phase was increased by 1.2-fold compared to controls (Fig. 3).
# S4.2.1. Cytotoxic activity evaluation
# To measure the cytotoxic actvity of the prepared derivatives 5 and 6a-h in breast adenocarcinoma (MCF-7) cell line. Cell viability assay was assessed using MTT assay method. Cells at density of 1 x 104 were seeded in a 96-well plate at 37 °C for 24 h under 5% CO2. After incubation, the cells were treated with different concentrations of the test hybrid 5 and 6a-h and incubated for 24 h, then 20 µl of MTT solution at 5 mg/mL was applied and incubated for 4 h at 37 °C. […] The color intensity of the formazan product, which represents the growth condition of the cells, is quantified by using an ELISA plate reader (EXL 800, USA) at 570 nm absorbance. […]
# Cell cycle analysis in MCF-7 cells was investigated using fluorescent […] (BioVision EZCellTM Cell Cycle Analysis Kit Catalog #K920) by flow cytometry assay. […] The samples were immediately analyzed using Facs Calibur flow cytometer (Becton and Dickinson, Heidelberg, […]
# MCF-7 cells [2] = assay: Annexin V-FITC/PI apoptosis assay by flow cytometry in MCF-7 cells; assay type: cell-based; details: 48 h
# Procedure: Apoptosis play an important role in organogenesis and in crafting complex tissues during embryonic growth, and in the preservation of tissue homeostasis in adult organism.[44] Numerous clinical disorders, including cancer, autoimmune illness and infectious diseases, are characterised by the deregulation of apoptosis.[45] To ensure the ability of quinoline tethered [2-(4-methoxyphenyl)-cis-vinyl] triamide 6f to activate apoptosis, flow cytometric measurement was carried out using Annexin V which binds to phophatidylserine declared on the outer layed of apoptotic cells and appears fluorescent green and PI which stains DNA and penetrates only dead cells. […] Meanwhile, the proportion of late apoptotic cells rose from 0.21% to 16.65% compared to DMOS controls (Fig. 4). […]
# S4.2.3. Apoptosis assay for compound 6f
# Apoptosis in MCF-7 cells was investigated using fluorescent Annexin V-FITC/ PI detection kit (BioVision Annexin V-FITC Apoptosis Detection Kit, Catalog #: K101) by flow cytometry assay. MCF-7 cells at a density of 2 × 10^5 per well were treated with compound 6f at the IC50 (µM) for 48 h, then the cells were harvested and stained with Annexin V-FITC/ PI dye for 15 min in the dark at 37 °C. The samples were immediately analyzed using FACS Calibur flow cytometer (Becton and Dickinson, […]
# S4.2.4. EGFR kinase Assay […]
# according to manufacturer’s instructions using # BPS Bioscience EGFR Kinase Assay
# EGFR tyrosine kinase = target: T1, EGFR tyrosine kinase (Homo sapiens, UniProt P00533); assay: EGFR kinase assay (BPS Bioscience EGFR Kinase Assay Kit); assay type: biochemical; details: read-out: EGFR inhibitory activity IC50
# T1 construct: purchased BPS Bioscience 40321
# T1 sequence (P00533 25-1210): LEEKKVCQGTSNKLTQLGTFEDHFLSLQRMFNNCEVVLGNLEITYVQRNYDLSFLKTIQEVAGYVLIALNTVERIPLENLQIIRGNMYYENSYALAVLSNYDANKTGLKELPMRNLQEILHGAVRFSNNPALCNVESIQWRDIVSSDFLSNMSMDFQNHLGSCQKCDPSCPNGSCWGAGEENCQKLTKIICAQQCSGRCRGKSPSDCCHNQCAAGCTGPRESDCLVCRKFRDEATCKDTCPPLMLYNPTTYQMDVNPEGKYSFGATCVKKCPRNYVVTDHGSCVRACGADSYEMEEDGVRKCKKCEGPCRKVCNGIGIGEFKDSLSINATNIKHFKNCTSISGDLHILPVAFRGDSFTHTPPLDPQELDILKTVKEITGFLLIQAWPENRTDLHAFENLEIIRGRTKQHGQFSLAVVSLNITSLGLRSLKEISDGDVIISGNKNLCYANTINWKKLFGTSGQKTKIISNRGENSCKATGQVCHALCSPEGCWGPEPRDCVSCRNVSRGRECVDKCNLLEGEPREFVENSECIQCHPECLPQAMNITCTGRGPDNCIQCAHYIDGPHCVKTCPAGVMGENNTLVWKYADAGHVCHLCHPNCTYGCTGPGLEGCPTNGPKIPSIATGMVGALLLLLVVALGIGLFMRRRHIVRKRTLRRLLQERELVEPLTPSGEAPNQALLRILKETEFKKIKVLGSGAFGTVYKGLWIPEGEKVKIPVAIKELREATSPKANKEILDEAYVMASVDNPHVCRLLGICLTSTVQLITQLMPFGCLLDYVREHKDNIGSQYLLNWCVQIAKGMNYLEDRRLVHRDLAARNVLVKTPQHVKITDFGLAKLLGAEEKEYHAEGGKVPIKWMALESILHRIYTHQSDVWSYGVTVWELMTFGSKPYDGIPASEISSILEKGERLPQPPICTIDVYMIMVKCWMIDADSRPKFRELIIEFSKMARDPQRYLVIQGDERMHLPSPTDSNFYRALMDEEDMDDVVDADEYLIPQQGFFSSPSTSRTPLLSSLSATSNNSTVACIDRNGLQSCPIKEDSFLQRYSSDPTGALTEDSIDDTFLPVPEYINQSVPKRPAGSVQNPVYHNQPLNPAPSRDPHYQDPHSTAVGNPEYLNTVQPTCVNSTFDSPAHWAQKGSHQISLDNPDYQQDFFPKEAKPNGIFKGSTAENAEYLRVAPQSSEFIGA
# Source text: immediately analyzed using FACS Calibur flow cytometer (Becton and Dickinson,
# S4.2.4. EGFR kinase Assay
# (1 picture or pasted object on this page, not shown here)
# MCF-7 cells [3] = assay: Mitochondrial membrane potential (MMP) by flow cytometry in MCF-7 cells; assay type: cell-based
# Source text: A major part of apoptosis process is played by mitochondria.[46] Several active proteins such as cytochrome C and factor that induces apoptosis are two of the active proteins found in mitochondria.[47] The release of such proteins after inhibition of mitochondrial membrane potential (MMP) is crucial in the propagation of apoptosis.[48] […] This decrease in MMP was linked to an increase in Annexin V positive cells. […] According to this, quinoline tethered [2-(4-methoxyphenyl)-cis-vinyl] triamide 6f cause MCF-7 cells to become dysfunction in their mitochondria, which in turn trigger apoptotic cellular death. These outcomes were consistent with early findings that EGFR-TK inhibitors promote apoptosis via the mitochondrial route.
smiles,measurement,setting,value
"Cc1ccc(/C=C(\NC(=O)c2ccccc2)C(=O)NNC(=O)c2cc(-c3ccc(Br)cc3)nc3ccccc23)cc1 [Compound 6e, (Z)-N-(3-(2-(2-(4-Bromophenyl)quinoline-4-carbonyl)hydrazinyl)-3-oxo-1-p-tolylprop-1-en-2-yl)benzamide]",melting point,,211 to 213 °C
same,IC50,"MCF-7 cell line; Homo sapiens, MCF7, 24 h",1.87 µM
same,fold more potent antiproliferative activity than the reference STU,MCF-7 cell line,1.06–7.10 fold
same,IC50,MCF-7 cell line,3.03 ± 0.1 µM
"COc1cc(/C=C(\NC(=O)c2ccccc2)C(=O)NNC(=O)c2cc(-c3ccc(Br)cc3)nc3ccccc23)cc(OC)c1OC [Compound 6h, (Z)-N-(3-(2-(2-(4-Bromophenyl)quinoline-4-carbonyl)hydrazinyl)-3-oxo-1-(3,4,5-trimethoxyphenyl)prop-1-en-2-yl)benzamide]",melting point,,169 to 171 °C
same,IC50,"MCF-7 cell line; Homo sapiens, MCF7, 24 h",15.6 ± 0.42 µM
"O=C(NNC(=O)c1cc(-c2ccc(Br)cc2)nc2ccccc12)/C(=C/c1ccc([N+](=O)[O-])cc1)NC(=O)c1ccccc1 [Compound 6d, (Z)-N-(3-(2-(2-(4-Bromophenyl)quinoline-4-carbonyl)hydrazinyl)-1-(4-nitrophenyl)-3-oxoprop-1-en-2-yl)benzamide]",melting point,,207 to 209 °C
same,IC50,"MCF-7 cell line; Homo sapiens, MCF7, 24 h",12.4 ± 0.4 µM
same,fold more potent antiproliferative activity than the reference STU,MCF-7 cell line,1.06–7.10 fold
"CC(=O)Oc1c(Br)cc(/C=C(\NC(=O)c2ccccc2)C(=O)NNC(=O)c2cc(-c3ccc(Br)cc3)nc3ccccc23)cc1Br [Compound 6g, (Z)-4-(2-Benzamido-3-(2-(2-(4-bromophenyl)quinoline-4-carbonyl)hydrazinyl)-3-oxoprop-1-enyl)-2,6-dibromophenyl acetate]",melting point,,181 to 183 °C
same,IC50,"MCF-7 cell line; Homo sapiens, MCF7, 24 h",30.4 ± 0.98 µM
"O=C(NNC(=O)c1cc(-c2ccc(Br)cc2)nc2ccccc12)/C(=C/c1ccc(Br)cc1)NC(=O)c1ccccc1 [Compound 6c, (Z)-N-(1-(4-Bromophenyl)-3-(2-(2-(4-bromophenyl)quinoline-4-carbonyl)hydrazinyl)-3-oxoprop-1-en-2-yl)benzamide]",melting point,,191 to 193 °C
same,IC50,"MCF-7 cell line; Homo sapiens, MCF7, 24 h",19.2 ± 0.62 µM
"O=C(NNC(=O)c1cc(-c2ccc(Br)cc2)nc2ccccc12)/C(=C/c1ccc(F)cc1)NC(=O)c1ccccc1 [Compound 6a, (Z)-N-(3-(2-(2-(4-Bromophenyl)quinoline-4-carbonyl)hydrazinyl)-1-(4-fluorophenyl)-3-oxoprop-1-en-2-yl)benzamide]",melting point,,177 to 179 °C
same,IC50,"MCF-7 cell line; Homo sapiens, MCF7, 24 h",59.8 ± 1.93 µM
"O=C(NNC(=O)c1cc(-c2ccc(Br)cc2)nc2ccccc12)/C(=C/c1ccco1)NC(=O)c1ccccc1 [Compound 5, (Z)-N-(3-(2-(2-(4-Bromophenyl)quinoline-4-carbonyl)hydrazinyl)-1-(furan-2-yl)-3-oxoprop-1-en-2-yl)benzamide]",melting point,,188 to 190 °C
same,IC50,"MCF-7 cell line; Homo sapiens, MCF7, 24 h",6.6 ± 0.21 µM
same,fold more potent antiproliferative activity than the reference STU,MCF-7 cell line,1.06–7.10 fold
"O=C(NNC(=O)c1cc(-c2ccc(Br)cc2)nc2ccccc12)/C(=C/c1ccc(Cl)cc1)NC(=O)c1ccccc1 [Compound 6b, (Z)-N-(3-(2-(2-(4-Bromophenyl)quinoline-4-carbonyl)hydrazinyl)-1-(4-chlorophenyl)-3-oxoprop-1-en-2-yl)benzamide]",melting point,,185 to 187 °C
same,IC50,"MCF-7 cell line; Homo sapiens, MCF7, 24 h",8.29 ± 0.27 µM
same,fold more potent antiproliferative activity than the reference STU,MCF-7 cell line,1.06–7.10 fold
"COc1ccc(/C=C(\NC(=O)c2ccccc2)C(=O)NNC(=O)c2cc(-c3ccc(Br)cc3)nc3ccccc23)cc1 [Compound 6f, (Z)-N-(3-(2-(2-(4-Bromophenyl)quinoline-4-carbonyl)hydrazinyl)-1-(4-methoxyphenyl)-3-oxoprop-1-en-2-yl)benzamide]",fold increase of percentage of cells at G1 phase compared to controls,MCF-7 cells [1],1.2 fold
same,percentage of cells at G2/M phase (%DIP G2/M),MCF-7 cells [1]; control 14.04%,7.12%
same,percentage of cells at S phase (%DIP S),MCF-7 cells [1]; control 34.30%,29.32%
same,IC50,"MCF-7 cell line; Homo sapiens, MCF7, 24 h",1.88 µM
same,fold more potent antiproliferative activity than the reference STU,MCF-7 cell line,1.06–7.10 fold
same,IC50,MCF-7 cell line,1.87 ± 0.06 µM
same,percentage of primary (early) apoptotic cells,"MCF-7 cells [2]; MCF-7, 1.87 μM (IC50), lower right quadrant, DMSO control 0.66%",9.52%
same,proportion of late apoptotic cells,"MCF-7 cells [2]; MCF-7, 1.87 μM (IC50), upper right quadrant, DMSO control 0.21%",16.65%
same,fold increase of early apoptosis compared to controls,"MCF-7 cells [2]; MCF-7, 1.87 μM",~14.4 fold
same,fold increase of late apoptosis compared to controls,"MCF-7 cells [2]; MCF-7, 1.87 μM",~79.3 fold
same,IC50,EGFR tyrosine kinase,0.19 µM
same,decrease of MMP of MCF-7 cells compared to controls (percentage change value),"MCF-7 cells [3]; MCF-7, 1.87 μM (IC50 dose), vs DMSO controls",57.93%
same,MMPΨ / MCF-7 (flow cytometry reading),"MCF-7 cells [3]; MCF-7, 1.87 μM, control 58497",24610
